Measurements: patent US12428415B2, “Matriptase 2 inhibitors and uses thereof” (Disc Medicine, Inc., priority 2018, dated 2025)

These compounds were tested against T1, Human Recombinant Matriptase 2 (Homo sapiens, UniProt Q8IU80) (assay: Matriptase 2 fluorescence based inhibition assay, Method A (100 mM TRIS pH 9, 1 mg/mL BSA)). Conditions: 1 uM compound; Assay Used = A; read-out: Mar-2 % inhibition at 1 uM.
T1 construct: purchased Enzo Life Sciences (an in-house preparation was also used) ALX-201-752-1
T1 sequence (Q8IU80 1-811): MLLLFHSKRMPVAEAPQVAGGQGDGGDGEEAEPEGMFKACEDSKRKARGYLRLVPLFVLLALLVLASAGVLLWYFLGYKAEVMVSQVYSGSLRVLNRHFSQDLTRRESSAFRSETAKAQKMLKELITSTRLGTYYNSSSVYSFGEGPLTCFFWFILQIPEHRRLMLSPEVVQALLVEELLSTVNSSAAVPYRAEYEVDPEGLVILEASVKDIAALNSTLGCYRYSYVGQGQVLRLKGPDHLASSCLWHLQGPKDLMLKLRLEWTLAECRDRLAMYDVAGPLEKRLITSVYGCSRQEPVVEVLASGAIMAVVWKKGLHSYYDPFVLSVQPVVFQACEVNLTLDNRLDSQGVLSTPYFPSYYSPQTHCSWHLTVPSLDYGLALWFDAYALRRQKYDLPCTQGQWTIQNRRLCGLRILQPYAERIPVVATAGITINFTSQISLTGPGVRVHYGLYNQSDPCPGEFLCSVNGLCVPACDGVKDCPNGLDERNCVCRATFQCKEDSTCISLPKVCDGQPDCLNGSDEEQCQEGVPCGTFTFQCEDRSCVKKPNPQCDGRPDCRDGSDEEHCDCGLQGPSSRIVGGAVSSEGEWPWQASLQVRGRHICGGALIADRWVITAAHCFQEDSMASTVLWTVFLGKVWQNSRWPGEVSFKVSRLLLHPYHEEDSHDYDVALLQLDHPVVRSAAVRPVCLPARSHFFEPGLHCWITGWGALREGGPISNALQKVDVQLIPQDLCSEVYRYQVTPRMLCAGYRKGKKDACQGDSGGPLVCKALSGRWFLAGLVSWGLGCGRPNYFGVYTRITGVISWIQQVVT
Assay type: biochemical
Method in brief: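 At 25° C in 100 mM TRIS pH 9 with 1 mg/mL BSA and 1% DMSO, compounds were preincubated 30 min with 7 nM commercial or 15 nM in-house protein before adding 100 μM Boc-Gln-Ala-Arg-7-amido-4-methyl coumarin. Fluorescence at 360/480 nm after 60 min; single points at 1 and 10 μM, IC50 by variable-slope nonlinear regression.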

For COc1ccc2cc(Cn3c(C(=O)N[C@H]4CC[C@H](N)CC4)cc4ccc(C(=N)N)cc43)ccc2c1 [Compound I-408], the inhibition at 1 µM was 50 to 75%.

Same assay, conditions: 1 uM; Assay Used A; read-out: Mar-2 % inhibition at 1 uM

C[C@H](NC(=O)c1cc2ccc(C(=N)N)cc2n1Cc1ccc(C(N)=O)cc1)c1ccc(Cl)c(Cl)c1 [Compound I-107] and C[C@H](NC(=O)c1cc2ccc(C(=N)N)cc2n1Cc1ccc(C(N)=O)cc1)c1ccc(F)cc1 [Compound I-63] fall in the same range of inhibition at 1 µM: 0 to 25% for the first, 0 to 25% for the second.

N=C(N)c1ccc2cc(C(=O)Nc3ccc(F)c(Br)c3)n(Cc3ccc(C(N)=O)cc3)c2c1 [Compound I-111] and N=C(N)c1ccc2cc(C(=O)Nc3cc(F)c(F)c(F)c3)n(Cc3ccc(C(N)=O)cc3)c2c1 [Compound I-89] fall in the same range of inhibition at 1 µM: 0 to 25% for the first, 0 to 25% for the second.

Cc1ccnc(NC(=O)c2cc3ccc(C(=N)N)cc3n2Cc2ccc(C(N)=O)cc2)c1 [Compound I-176] and N=C(N)c1ccc2cc(C(=O)Nc3ccnc(N4CCCC4)c3)n(Cc3ccc(C(N)=O)cc3)c2c1 [Compound I-178] fall in the same range of inhibition at 1 µM: 0 to 25% for the first, 0 to 25% for the second.

C[C@H](NC(=O)c1cc2ccc(C(=N)N)cc2n1Cc1ccc(C(N)=O)cc1)C1CCCCC1 [Compound I-193] and CC(C)N1CC[C@H](NC(=O)c2cc3ccc(C(=N)N)cc3n2Cc2ccc(C(N)=O)cc2)C1 [Compound I-196] fall in the same range of inhibition at 1 µM: 0 to 25% for the first, 0 to 25% for the second.

N=C(N)c1ccc2cc(C(=O)Nc3ccc(C(F)(F)F)cc3)n(Cc3ccc(C(N)=O)cc3)c2c1 [Compound I-61] and C=CCOc1cccc(NC(=O)c2cc3ccc(C(=N)N)cc3n2Cc2ccc(C(N)=O)cc2)c1 [Compound I-139] fall in the same range of inhibition at 1 µM: 0 to 25% for the first, 0 to 25% for the second.

N=C(N)c1ccc2cc(C(=O)Nc3cccc(-n4cccn4)n3)n(Cc3ccc(C(N)=O)cc3)c2c1 [Compound I-181] and N=C(N)c1ccc2cc(C(=O)NCc3ccccc3)n(Cc3ccc(C(N)=O)cc3)c2c1 [Compound I-77] fall in the same range of inhibition at 1 µM: 0 to 25% for the first, 0 to 25% for the second.

First: N=C(N)c1ccc2cc(C(=O)NCC3CCCCC3)n(CCS(=O)(=O)c3ccccc3)c2c1 [Compound I-49]
Second: N=C(N)c1ccc2cc(C(=O)NCC3CCNCC3)n(CCS(=O)(=O)c3ccccc3)c2c1 [Compound I-50]
The inhibition at 1 µM of the first is lower: 0 to 25% for the first, 50 to 75% for the second.

N=C(N)c1ccc2cc(C(=O)Nc3cccc(OCC4CC4)c3)n(Cc3ccc(C(N)=O)cc3)c2c1 [Compound I-121] and N=C(N)c1ccc2cc(C(=O)Nc3cccc(N4CCOCC4)c3)n(Cc3ccc(C(N)=O)cc3)c2c1 [Compound I-129] fall in the same range of inhibition at 1 µM: 0 to 25% for the first, 0 to 25% for the second.

CCCOC(=O)NC(=N)c1ccc2cc(C(=O)Nc3cccc(N4CCCC4)c3)n(Cc3ccc(C(N)=O)cc3)c2c1 [Compound I-162] and CCCCCCOC(=O)NC(=N)c1ccc2cc(C(=O)Nc3cccc(N4CCCC4)c3)n(Cc3ccc(C(N)=O)cc3)c2c1 [Compound I-159] fall in the same range of inhibition at 1 µM: 0 to 25% for the first, 0 to 25% for the second.

First: N=C(N)c1ccc2cc(C(=O)NCC3CCOCC3)n(Cc3ccc(C(N)=O)cc3)c2c1 [Compound I-192]
Second: N=C(N)c1ccc2cc(C(=O)N[C@H]3CC[C@H](N)CC3)n(Cc3ccc(C(=O)O)cc3)c2c1 [Compound I-20, 4-((2-(((1r,4r)-4-aminocyclohexyl)carbamoyl)-6-carbamimidoyl-1H-indol-1-yl)methyl)benzoic Acid]
The inhibition at 1 µM of the first is lower: 0 to 25% for the first, 25 to 50% for the second.

First: N=C(N)c1ccc2cc(C(=O)NCC3CCC(F)(F)CC3)n(CCS(=O)(=O)c3ccccc3)c2c1 [Compound I-54]
Second: CCOC(=O)c1ccc(Cn2c(C(=O)N[C@H]3CC[C@H](N)CC3)cc3ccc(C(=N)N)cc32)cc1 [Compound I-22, Ethyl 4-((2-(((1r,4r)-4-aminocyclohexyl)carbamoyl)-6-carbamimidoyl-1H-indol-1-yl)methyl)-benzoate]
The inhibition at 1 µM of the first is lower: 0 to 25% for the first, 25 to 50% for the second.

N=C(N)c1ccc2cc(C(=O)NC3CCC(N4CCCC4)CC3)n(Cc3ccc(C(N)=O)cc3)c2c1 (centres unmarked) [Compound I-188] gave an inhibition at 1 µM of 25 to 50%.

Same assay, conditions: at 1 uM; Assay Used = A; read-out: Mar-2 % inhibition at 1 uM

N=C(N)c1ccc2cc(C(=O)N3CCc4ccccc4C3)n(Cc3cccc(NC(=O)CCN)c3)c2c1 [Compound I-365] and N=C(N)c1ccc2cc(C(=O)N3CCC(F)(F)C3)n(Cc3cccc(NC(=O)CCN)c3)c2c1 [Compound I-369] fall in the same range of inhibition at 1 µM: 0 to 25% for the first, 0 to 25% for the second.

First: N=C(N)c1ccc2cc(C(=O)N3CC[C@@H](F)C3)n(Cc3ccc(Oc4ccccc4)cc3)c2c1 [Compound I-313]
Second: CC(C)(C)c1ccc(Cn2c(C(=O)N3CC[C@H](F)C3)cc3ccc(C(=N)N)cc32)cc1 [Compound I-298]
The inhibition at 1 µM of the first is lower: 0 to 25% for the first, 25 to 50% for the second.

C[C@@H](O)CNC(=O)c1cc2ccc(C(=N)N)cc2n1Cc1ccc(C(N)=O)cc1 [Compound I-207] and N=C(N)c1ccc2cc(C(=O)N[C@H]3c4ccccc4C[C@H]3O)n(Cc3ccc(C(N)=O)cc3)c2c1 [Compound I-204] fall in the same range of inhibition at 1 µM: 0 to 25% for the first, 0 to 25% for the second.

First: N=C(N)c1ccc2cc(C(=O)NC34CC5CC(CC(O)(C5)C3)C4)n(Cc3ccc(Oc4ccc(F)cc4)cc3)c2c1 [Compound I-244]
Second: N=C(N)c1ccc2cc(C(=O)NC3CC=CCC3)n(Cc3ccc(NC(=O)CCN)cc3)c2c1 (centres unmarked) [Compound I-264, 1-(4-(3-Aminopropanamido)benzyl)-6-carbamimidoyl-N-(cyclohex-3-en-1-yl)-1H-indole-2-carboxamide]
The inhibition at 1 µM of the first is higher: 25 to 50% for the first, 0 to 25% for the second.

N=C(N)c1ccc2cc(C(=O)N3CCC(F)CC3)n(Cc3ccc(C(F)(F)F)cc3)c2c1 [Compound I-282] and N=C(N)c1ccc2cc(C(=O)N3CCC(CCO)CC3)n(Cc3ccc(C(F)(F)F)cc3)c2c1 [Compound I-280] fall in the same range of inhibition at 1 µM: 0 to 25% for the first, 0 to 25% for the second.

Compared with N=C(N)c1ccc2c(N)c(C(=O)N3CCc4ccccc4C3)n(CCS(=O)(=O)c3ccccc3)c2c1 [Compound I-352], N=C(N)c1ccc2cc(C(=O)N3CC[C@@H](N)C3)n(CCc3ccccc3)c2c1 [Compound I-300] is higher in inhibition at 1 µM: 0 to 25% for the first, 25 to 50% for the second.

N=C(N)c1ccc2cc(C(=O)N3CCC(F)(F)C3)n(Cc3ccc(C(=O)NCCN)cc3)c2c1 [Compound I-392] and N=C(N)c1ccc2cc(C(=O)N3CCC(F)(F)C3)n(Cc3cccc(C(N)=O)c3)c2c1 [Compound I-324] fall in the same range of inhibition at 1 µM: 0 to 25% for the first, 0 to 25% for the second.

First: N=C(N)c1ccc2cc(C(=O)N[C@H]3CC[C@H](N)CC3)n(Cc3cccc(N)c3)c2c1 [Compound I-256, 1-(3-Aminobenzyl)-N-((1r,4r)-4-aminocyclohexyl)-6-carbamimidoyl-1H-indole-2-carboxamide]
Second: N=C(N)c1ccc2cc(C(=O)N[C@H]3CC[C@H](N)CC3)n(Cc3cccc(NC(=O)C4CNC4)c3)c2c1 [Compound I-258, N-((1r,4r)-4-Aminocyclohexyl)-1-(3-(azetidine-3-carboxamido)benzyl)-6-carbamimidoyl-1H-indole-2-carboxamide]
The inhibition at 1 µM of the first is lower: 25 to 50% for the first, 50 to 75% for the second.

N=C(N)c1ccc2cc(C(=O)NCC3CCCCC3)n(Cc3ccc(C(=O)NCCO)cc3)c2c1 [Compound I-222, 6-Carbamimidoyl-N-(cyclohexylmethyl)-1-(4-((2-hydroxyethyl)carbamoyl)benzyl)-1H-indole-2-carboxamide] and N=C(N)c1ccc2c(O)c(C(=O)NCC3CCCCC3)n(Cc3ccc(C(N)=O)cc3)c2c1 [Compound I-212, 6-Carbamimidoyl-1-(4-carbamoylbenzyl)-N-(cyclohexylmethyl)-3-hydroxy-1H-indole-2-carboxamide] fall in the same range of inhibition at 1 µM: 0 to 25% for the first, 0 to 25% for the second.

NC(=O)c1ccc(Cn2c(C(=O)Nc3cc(N4CCCC4)ccn3)cc3ccc(/C(N)=N/O)cc32)cc1 [Compound I-269, 1-(4-Carbamoylbenzyl)-6-(N′-hydroxycarbamimidoyl)-N-(4-(pyrrolidin-1-yl)pyridin-2-yl)-1H-indole-2-carboxamide] and NCCC(=O)Nc1cccc(Cn2c(C(=O)N3CCC(CCN)CC3)cc3ccc(/C(N)=N/O)cc32)c1 [Compound I-381] fall in the same range of inhibition at 1 µM: 0 to 25% for the first, 0 to 25% for the second.

N=C(N)c1ccc2cc(C(=O)NC3CCC(F)(F)CC3)n(Cc3cccc(C(N)=O)c3)c2c1 [Compound I-230, 6-Carbamimidoyl-1-(3-carbamoylbenzyl)-N-(4-difluorocyclohexyl)-1H-indole-2-carboxamide] and CC1CCC(NC(=O)c2cc3ccc(C(=N)N)cc3n2Cc2ccc(C(=O)N(C)C)cc2)CC1 (centres unmarked) [Compound I-218, 6-Carbamimidoyl-1-(4-(dimethylcarbamoyl)benzyl)-N-(4-methylcyclohexyl)-1H-indole-2-carboxamide] fall in the same range of inhibition at 1 µM: 0 to 25% for the first, 0 to 25% for the second.

With CC(C)c1ccc(Cn2c(C(=O)N3CCC(F)(F)CC3)cc3ccc(C(=N)N)cc32)cc1 [Compound I-296] the inhibition at 1 µM was 0 to 25%.
